Laboratory results from patent US20060014834A1, “Retinoid solutions and formulations made therefrom” (priority 2004, published 2006).

Assays:
Assay type in all cases: physicochemical
[1] = Elevated temperature stability of the actives in the liquid to powder suspension system of Example 13; settings: Example 13 suspension
Description: The elevated temperature stability of the actives in the liquid to powder suspension system of Example 13 was determined using techniques known to those skilled in the art.

[2] = Elevated temperature stability of the actives in the oil in water emulsion of Example 10; settings: Example 10 emulsion
Description: The elevated temperature stability of the actives in the oil in water emulsion of Example 10 was determined using techniques within the purview of those skilled in the art.

[3] = Solubility of tretinoin in ethanol, ester cosolvent or both
Description: The method of preparing the solution is not critical. Typically, the cosolvents are combined and the retinoid is added with stirring at room temperature until completely solubilized.
It has been experimentally determined that tretinoin is not soluble in ethanol in the ratios set forth in Examples A-D:
Isopropyl myristate (“IPM”) can be replaced with alkyl benzoate, isopropyl palmitate (“IPP”) or diisopropyl adipate to achieve the same results.
In Examples E-J where alcohol is not present, the retinoids are not soluble in the esters alone. This further confirms the present finding that retinoids can be solubilized in a small amount of alcohol by using specific cosolvents.
To effectively utilize the chamber in a chamber delivery system, one must balance the concentration of the actives in both chambers. This is necessary to achieve the final, active concentration, which is efficacious as well as compliant with the FDA. The present disclosure teaches how to prepare higher concentrations of tretinoin in solution for the small chamber by using lower concentrations of alcohol by means of cosolvents such a alkyl benzoate, isopropyl myristate, and isopropyl palmitate.

[4] = 25° C., 2 months, unit not given
[5] = 25° C., 3 months, unit not given
[6] = 30° C., 1 month, unit not given
[7] = 30° C., 2 months, unit not given
[8] = 30° C., 3 months, unit not given

- active content, 25° C., 1 month ([1]; 25° C., 1 month, unit not given): 0.0508
- active content, 25° C., 2 months [1, 4]: 0.0499
- active content, 25° C., 3 months [1, 5]: 0.0497
- active content, 30° C., 1 month [1, 6]: 0.051
- active content, 30° C., 2 months [1, 7]: 0.0498
- active content, 30° C., 3 months [1, 8]: 0.0488
- active content, Initial ([1]; initial): 0.0517%
- active content, 25° C., 2 months [2, 4]: 0.0497
- active content, 25° C., 3 months [2, 5]: 0.0497
- active content, 30° C., 1 month [2, 6]: 0.0490
- active content, 30° C., 2 months [2, 7]: 0.0490
- active content, 30° C., 3 months [2, 8]: 0.0490
- active content, Initial ([2]; initial): 0.0497%
- dissolution in alcohol using ester cosolvent ([3]; 1 gram of tretinoin in 3 grams of alcohol (33.3 percent solution) with alkyl benzoate, isopropyl myristate, isopropyl palmitate or other esters): completely dissolved
- solubility in ethanol ([3]; ethanol alone, tretinoin:ethanol ratios of Examples A-D): not soluble
SMILES: CC1=C(/C=C/C(C)=C/C=C/C(C)=C/C(=O)O)C(C)(C)CCC1 [Tretinoin]
- solubility in ethanol plus cosolvent (clear solution) ([3]; same tretinoin:ethanol ratios, cosolvent IPM added (Examples 1-4)): completely dissolve into a clear solution
